Data taken from patent US20240066027A1 (DOMAIN THERAPEUTICS, priority 2020, published 2024).

biological target: T1, human PAR-2 (hPAR-2) receptor expressed in HEK-293 T cells in an endogenous manner (Homo sapiens, UniProt P55085); assay: In vitro human PAR-2 functional antagonist activity using calcium assays (Fluo4AM, FLIPR Tetra); assay type: cell-based; settings: HEK-293 T cells stimulated by an EC80 of the 2-Furoyl-LIGRLO-NH2 peptide after 10 min incubation with compound; 20 concentrations, duplicate, two independent experiments
T1 construct: human PAR-2 (hPAR-2) receptor expressed in HEK-293 T cells in an endogenous manner; endogenous in cells; host or cells: HEK-293 T cells
T1 sequence (P55085 26-397): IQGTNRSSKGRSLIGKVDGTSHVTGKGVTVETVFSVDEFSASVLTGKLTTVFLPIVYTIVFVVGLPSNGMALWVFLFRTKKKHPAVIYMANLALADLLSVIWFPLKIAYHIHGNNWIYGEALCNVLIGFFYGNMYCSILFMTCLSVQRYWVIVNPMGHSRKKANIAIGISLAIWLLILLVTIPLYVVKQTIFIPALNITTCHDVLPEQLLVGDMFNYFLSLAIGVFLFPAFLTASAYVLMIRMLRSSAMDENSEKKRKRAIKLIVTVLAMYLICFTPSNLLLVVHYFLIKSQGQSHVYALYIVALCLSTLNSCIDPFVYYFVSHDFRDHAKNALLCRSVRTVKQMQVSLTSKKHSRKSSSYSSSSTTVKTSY
Protocol: In vitro human PAR-2 functional antagonist activity using calcium assays
Examples of the present invention were tested successively for their agonist and antagonist activities on human PAR-2 (hPAR-2) receptor expressed in HEK-293 T cells in an endogenous manner. Compounds exert agonist activity if, by themselves in absence of the 2-Furoyl-LIGRLO-NH2 peptide (selective hPAR-2 agonist), they activate PAR-2; they exert antagonist activity if they decrease the action of the 2-Furoyl-LIGRLO-NH2 peptide on the receptor. The assay used to determine compound activity is based on calcium measurement.
Cell Culture: HEK-293 T cells were maintained in Dulbecco's Modified Eagle's Medium supplemented with 10% Foetal Calf Serum, 1% Penicillin/Streptomycin at 37° C./5% CO2. Flasks for tests (F75) are seeded with 6e+06 cells 24 h before the experiment at 37° C./5% CO2.
Calcium assay: Receptor activity was detected by changes in intracellular calcium measured using the fluorescent Ca^2+ sensitive dye, Fluo4AM (Molecular Probes).
The day of the assay, medium was replaced by assay buffer (HBSS 1× (Gibco 14175-053), Hepes 20 mM, MgSO4-7H2O 1 mM, Na2CO3 3.3 mM, CaCl2-2H2O 1.3 mM, 0.5% BSA, Probenecid 2.5 mM, 0.1 mg/mL Pluronic Acid) and complemented with 1 μM Fluo4AM and cells were incubated during 1:30 h at 37° C.
Cells were then detached, resuspended in assay buffer and seeded in 384 wells, transparent-flat bottom black walled plates (2e+04 cells per well). Plates were incubated at +22° C. for 20 min. Compounds stock solutions were prepared in 100% DMSO and dilutions in test buffer were carried out in polypropylene plates with a digital dispenser (D300e, Tecan). Compounds were added to the cells and intracellular Ca^2+ measurements were collected at the same time on FLIPR Tetra® (Molecular Devices) with specific filters (Exc: 470-495 nm/Em: 515-575 nm).
Agonist and antagonist activities of compounds were consecutively evaluated on the same cell plate. Agonist activity was first measured after 10 min incubation with the compound alone. Then, cells were stimulated by an EC80 of the 2-Furoyl-LIGRLO-NH2 peptide and fluorescence was recorded for an additional 5 min. EC80 of the 2-Furoyl-LIGRLO-NH2 peptide was the concentration giving 80% of the maximal 2-Furoyl-LIGRLO-NH2 response. Agonist activities are evaluated in comparison to basal signals evoked by assay buffer or maximal 2-Furoyl-LIGRLO-NH2 response. […] Antagonist activities are evaluated in comparison to basal signals evoked by assay buffer or EC80 of 2-Furoyl-LIGRLO-NH2 alone.

Row | Compound | IC50 [nM]
1 | Cc1cc(N2CCN(C(=O)c3ccc4c(-c5ccc(Cl)c(F)c5)cn(C(C)(C)CO)c4n3)C(C)(C)C2)nc(C)c1C(=O)O [Example 102, 6-(4-(3-(4-chloro-3-fluorophenyl)-1-(1-hydroxy-2-methylpropan-2-yl)-1H-pyrrolo[2,3-b]pyridine-6-carbonyl)-3,3-dimethylpiperazin-1-yl)-2,4-dimethylnicotinic acid] | 20 to 10000
2 | Cc1cc(N(C)C2CCN(C(=O)c3ccc4c(-c5ccc(Cl)c(F)c5)cn(C(C)(C)C)c4n3)CC2C)nc(C)c1C(=O)O (mixture of isomers) [Example 199, 6-((1-(1-(tert-butyl)-3-(4-chloro-3-fluorophenyl)-1H-pyrrolo[2,3-b]pyridine-6-carbonyl)-3-methylpiperidin-4-yl)(methyl)amino)-2,4-dimethylnicotinic acid] | 20 to 10000
3 | Cc1cc(N(C)[C@@H]2CCN(C(=O)c3ccc4c(-c5ccc(Cl)c(F)c5)cn(C(C)(C)C)c4n3)C2)nc(C)c1C(=O)O [Example 155, (R)-6-((1-(1-(tert-butyl)-3-(4-chloro-3-fluorophenyl)-1H-pyrrolo[2,3-b]pyridine-6-carbonyl)pyrrolidin-3-yl)(methyl)amino)-2,4-dimethylnicotinic acid] | 20 to 10000
4 | CC1(C)CN(c2ccc(C(N)=O)cn2)CCN1C(=O)c1ccc2c(-c3ccc(Cl)c(F)c3)cn(C(C)(C)C)c2n1 [Example 138, 6-(4-(1-(tert-butyl)-3-(4-chloro-3-fluorophenyl)-1H-pyrrolo[2,3-b]pyridine-6-carbonyl)-3,3-dimethylpiperazin-1-yl)nicotinamide] | < 20
5 | CC(C)Cn1nc(-c2ccc(Cl)c(F)c2)c2ccc(C(=O)N3CCNC(=O)C3(C)C)cc21 [Example 83, 4-(3-(4-chloro-3-fluorophenyl)-1-isobutyl-1H-indazole-6-carbonyl)-3,3-dimethylpiperazin-2-one] | 20 to 10000
6 | Cc1cc(N2CCN(C(=O)c3ccc4c(-c5ccc(Cl)c(F)c5)cn(C(C)(C)C)c4n3)C(C)(C)C2)cc(C)c1C(=O)O [Example 210, 4-(4-(1-(tert-butyl)-3-(4-chloro-3-fluorophenyl)-1H-pyrrolo[2,3-b]pyridine-6-carbonyl)-3,3-dimethylpiperazin-1-yl)-2,6-dimethylbenzoic acid] | < 20
7 | Cc1cc(N2CCN(C(=O)c3ccc4c(n3)c(C(C)(C)C)nn4-c3ccc(Cl)c(F)c3)C(C)(C)C2)nc(C)c1C(=O)O [Example 59, 6-(4-(3-(tert-butyl)-1-(4-chloro-3-fluorophenyl)-1H-pyrazolo[4,3-b]pyridine-5-carbonyl)-3,3-dimethylpiperazin-1-yl)-2,4-dimethylnicotinic acid] | < 20
8 | Cc1cc(N2CCN(C(=O)c3ccc4c(-c5ccc(Cl)c(F)c5)cn(C[C@@H]5CCOC5)c4n3)C(C)(C)C2)nc(C)c1C(=O)O [Example 182, (S)-6-(4-(3-(4-chloro-3-fluorophenyl)-1-((tetrahydrofuran-3-yl)methyl)-1H-pyrrolo[2,3-b]pyridine-6-carbonyl)-3,3-dimethylpiperazin-1-yl)-2,4-dimethylnicotinic acid] | 20 to 10000
9 | Cc1cc(N2CCN(C(=O)c3ccc4c(-c5ccc(F)c(F)c5)cn(CC(C)C)c4n3)C(C)(C)C2)nc(C)c1C(=O)O [Example 141, 6-(4-(3-(3,4-difluorophenyl)-1-isobutyl-1H-pyrrolo[2,3-b]pyridine-6-carbonyl)-3,3-dimethylpiperazin-1-yl)-2,4-dimethylnicotinic acid] | < 20
10 | CC(C)n1cc(-c2ccc(Cl)c(F)c2)c2ccc(C(=O)N3CCNC(=O)C3(C)C)nc21 [Example 96, 4-(3-(4-chloro-3-fluorophenyl)-1-isopropyl-1H-pyrrolo[2,3-b]pyridine-6-carbonyl)-3,3-dimethylpiperazin-2-one] | < 20
11 | CC(C)Cc1nn(-c2ccc(Cl)c(F)c2)c2ccc(C(=O)N3CCC4(CC3)NC(=O)NC4=O)nc12 [Example 70, 8-(1-(4-chloro-3-fluorophenyl)-3-isobutyl-1H-pyrazolo[4,3-b]pyridine-5-carbonyl)-1,3,8-triazaspiro[4.5]decane-2,4-dione] | > 10000
12 | CC(C)Cc1nn(-c2ccc(Cl)c(F)c2)c2ccc(C(=O)N3CCNC(=O)C3(C)C)cc12 [Example 228, 4-(1-(4-chloro-3-fluorophenyl)-3-isobutyl-1H-indazole-5-carbonyl)-3,3-dimethylpiperazin-2-one] | 20 to 10000
13 | COCC1CN(C(=O)c2ccc3c(-c4ccc(Cl)c(F)c4)cn(C(C)(C)C)c3n2)CCN1c1cc(C)c(C(=O)O)c(C)n1 (stereo not drawn) [Example 132, 6-(4-(1-(tert-butyl)-3-(4-chloro-3-fluorophenyl)-1H-pyrrolo[2,3-b]pyridine-6-carbonyl)-2-(methoxymethyl)piperazin-1-yl)-2,4-dimethyinicotinic acid] | 20 to 10000
14 | Cc1cc(N2CCN(C(=O)c3ccc4c(-c5ccc(Cl)c(F)c5)cn(C(C)(C)C)c4n3)CC2CO)nc(C)c1C(=O)O (stereo not drawn) [Example 157, 6-(4-(1-(tert-butyl)-3-(4-chloro-3-fluorophenyl)-1H-pyrrolo[2,3-b]pyridine-6-carbonyl)-2-(hydroxymethyl)piperazin-1-yl)-2,4-dimethylnicotinic acid] | 20 to 10000
15 | CC(C)(C)n1cc(-c2ccc(Cl)c(F)c2)c2ccc(C(=O)N3[C@@H]4CC[C@H]3COC4)nc21 [Example 19, ((1R,5S)-3-oxa-8-azabicyclo[3.2.1]octan-8-yl)(1-(tertbutyl)-3-(4-chloro-3-fluorophenyl)-1H-pyrrolo[2,3-b]pyridin-6-yl)methanone] | 20 to 10000
16 | Cc1cc(N2CCN(C(=O)c3ccc4c(-c5ccc(Cl)c(F)c5)cn(Cc5ccncc5)c4n3)C(C)(C)C2)nc(C)c1C(=O)O [Example 149, 6-(4-(3-(4-chloro-3-fluorophenyl)-1-(pyridin-4-ylmethyl)-1H-pyrrolo[2,3-b]pyridine-6-carbonyl)-3,3-dimethylpiperazin-1-yl)-2,4-dimethylnicotinic acid] | 20 to 10000
17 | CC(C)Cn1cc(-c2ccc3ccccc3c2)c2ccc(C(=O)N3CCNC(=O)C3(C)C)nc21 [Example 226, 4-(1-isobutyl-3-(naphthalen-2-yl)-1H-pyrrolo[2,3-b]pyridine-6-carbonyl)-3,3-dimethylpiperazin-2-one] | 20 to 10000
18 | Cc1cc2c(-c3ccc(Cl)c(F)c3)cn(CC(C)C)c2nc1C(=O)N1CCN(c2cc(C)c(C(=O)O)c(C)n2)CC1 [Example 186, 6-(4-(3-(4-chloro-3-fluorophenyl)-1-isobutyl-5-methyl-1H-pyrrolo[2,3-b]pyridine-6-carbonyl)piperazin-1-yl)-2,4-dimethylnicotinic acid] | > 10000
19 | Cc1cc(N2CCN(C(=O)c3ccc4c(-c5ccc(Cl)c(F)c5)c(C)n(C)c4n3)C(C)(C)C2)nc(C)c1C(=O)O [Example 119, 6-(4-(3-(4-chloro-3-fluorophenyl)-1,2-dimethyl-1H-pyrrolo[2,3-b]pyridine-6-carbonyl)-3,3-dimethylpiperazin-1-yl)-2,4-dimethylnicotinic acid] | 20 to 10000
20 | CC(C)(C)n1cc(-c2ccc(Cl)c(F)c2)c2ccc(C(=O)N3CCC(CC(N)=O)CC3)nc21 [Example 163, 2-(1-(1-(tert-butyl)-3-(4-chloro-3-fluorophenyl)-1H-pyrrolo[2,3-b]pyridine-6-carbonyl)piperidin-4-yl)acetamide] | 20 to 10000
21 | CC(C)Cn1cc(-c2ccc(Cl)c(F)c2)c2ccc(C(=O)N3CCC(CC(=O)O)CC3)cc21 [Example 204, 2-(1-(3-(4-chloro-3-fluorophenyl)-1-isobutyl-1H-indole-6-carbonyl)piperidin-4-yl)acetic acid] | 20 to 10000
